Consider 24 compounds from US11192889B2, “Tetrahydronaphthyridinepentanamide integrin antagonists” (The Rockefeller University, priority 2016, dated 2021).

Assay [1] has as its target T1, HEK-293-αVβ3 cells (Homo sapiens, UniProt P05106+P06756). Put plainly: AP5 Binding Assay. Conditions: for AP5 expression induced at the highest concentration / activation at 10 µM: @10 μM, relative to AP5 expression induced by cilengitide; for EC50: concentration inducing 50% of the AP5 expression induced by 1 μM cilengitide; for activation at 10 µM: read-out: AP5 expression induced at the highest concentration. The format is cell-based. The source says:
(§1) HEK-293 Cells Expressing αVβ3. HEK-293 cells were transfected using lipofectamine 2000 (Invitrogen #11668030) with the cDNA for αV using the pEF1/V5-His A vector and the cDNA for β3 using the vector pcDNA3.1. Cells expressing αVβ3 were identified by their reaction with murine monoclonal antibodies (mAbs) LM609 and 7E3, and stable cell lines were established by repetitive sorting using LM609. […] HEK-293-αVβ3 cells for assays are counted in an automated cell counter (ADVIA 120) and adjusted to values appropriate for each assay.
AP5 Binding Assay. HEK-293-αVβ3 cells are harvested using 0.05% trypsin 0.5 mM EDTA, washed with HBMT once, and resuspended in HBMT containing 1 mM Mg2+ and 2 mM Ca2+. The cells are counted and adjusted to 0.5×10^6 cells per sample. The compound to be tested and fluorescently labeled mAb AP5 (either Alexa 488 or Alexa 674; 10 μg/mL) are added and incubated for 30 minutes at 37° C. The cells are then washed and analyzed by flow cytometry (BD FACSCalibur) at the appropriate wavelength for detecting the AP5 fluorophore. In each assay, cilengitide (1 μM) and 10 mM EDTA are included as positive controls and untreated cells are used as the negative control. The concentration of the test compound required to induce the expression of 50% of the AP5 expression induced by cilengitide is calculated and defined as the EC50. The EC50 for cilengitide was determined based on the expression induced by EDTA.

The target in assay [2] is T1, HEK-293-αVβ3 cells. Description: αVβ3 Cell Adhesion to Fibrinogen Assay. The format is cell-based. Further details: IC50; other: dose reducing by 50% the adhesion of HEK-293-αVβ3 cells to fibrinogen; untreated cells 100% adhesion, 10 mM EDTA 0%. Conditions: for IC50: dose reducing by 50% the adhesion of HEK-293-αVβ3 cells to fibrinogen, separate determinations listed.
Text: as §1
αVβ3 Cell Adhesion to Fibrinogen Assay. Polystyrene 96-well microtiter plates (Costar, 3590) are precoated with 3.5 μg/mL of purified fibrinogen (Enzyme Research Laboratories) in 0.15 M NaCl, 0.01 M Tris/HCL, pH 7.4 for 1 hour at 37° C. The wells are then washed and incubated with HEPES-Buffered Modified Tyrode's solution (HBMT; 0.128 M NaCl, 10 mM HEPES, 12 mM NaHCO3, 0.4 mM NaH2PO4, 2.7 mM KCl, 0.35% bovine serum albumin (Fisher), 0.1% glucose, pH 7.4) for 1 hour at room temperature or overnight at 4° C. Wells are washed with HBMT containing 1 mM Mg2+ and 2 mM Ca2+ and then 50 μL of HEK-293-αVβ3 cells that have been pretreated with the compound to be tested for 20 minutes at room temperature are added to each well at a concentration of 3,000 cells/μL. After 30-32 minutes the wells are washed with HBMT containing Ca2+ and Mg2+ three times and then the adherent cells are lysed and the acid phosphatase activity that is released is measured by: 1. adding phosphatase substrate (Sigma EC 224-246-5) at 2 mg/mL in 0.1 M Na citrate, pH 5.6, 0.1% triton X-100 for 1 hour at room temperature; 2. stopping the reaction by adding 50 μL of 2 M NaOH; and 3. analyzing the samples in a spectrophotometer at 405 nm. In each assay, 10 mM EDTA is used as a positive control and untreated cells are used as a negative control. The IC50 is the dose of test compound that reduces by 50% the adhesion of the HEK-293-αVβ3 cells, taking the results with untreated cells as 100% and the results in the presence of EDTA as 0%. In some instances more than one IC50 determination was made, in which case, results of separate determinations are reported. IC50's were not determined for all compounds in the table; for some of these test compounds the inhibition at specific doses are reported. In some instances, the test compound produced a greater reduction than 10 mM EDTA, and these are shown as negative numbers.

For orientation: EC50 means the midpoint of the concentration-response curve. A high value points to lower potency in that assay. Broadly, the IC50 is the concentration that inhibits the measured activity by half. Lower therefore signals greater potency. For orientation: inhibition means the share of the control response that was lost under treatment. Read a high inhibition as strong suppression.

“And” between values parts separate entries of the source, which are not always exact repeats. Equal values may be shown once.

T1 sequence (P05106 whole entry): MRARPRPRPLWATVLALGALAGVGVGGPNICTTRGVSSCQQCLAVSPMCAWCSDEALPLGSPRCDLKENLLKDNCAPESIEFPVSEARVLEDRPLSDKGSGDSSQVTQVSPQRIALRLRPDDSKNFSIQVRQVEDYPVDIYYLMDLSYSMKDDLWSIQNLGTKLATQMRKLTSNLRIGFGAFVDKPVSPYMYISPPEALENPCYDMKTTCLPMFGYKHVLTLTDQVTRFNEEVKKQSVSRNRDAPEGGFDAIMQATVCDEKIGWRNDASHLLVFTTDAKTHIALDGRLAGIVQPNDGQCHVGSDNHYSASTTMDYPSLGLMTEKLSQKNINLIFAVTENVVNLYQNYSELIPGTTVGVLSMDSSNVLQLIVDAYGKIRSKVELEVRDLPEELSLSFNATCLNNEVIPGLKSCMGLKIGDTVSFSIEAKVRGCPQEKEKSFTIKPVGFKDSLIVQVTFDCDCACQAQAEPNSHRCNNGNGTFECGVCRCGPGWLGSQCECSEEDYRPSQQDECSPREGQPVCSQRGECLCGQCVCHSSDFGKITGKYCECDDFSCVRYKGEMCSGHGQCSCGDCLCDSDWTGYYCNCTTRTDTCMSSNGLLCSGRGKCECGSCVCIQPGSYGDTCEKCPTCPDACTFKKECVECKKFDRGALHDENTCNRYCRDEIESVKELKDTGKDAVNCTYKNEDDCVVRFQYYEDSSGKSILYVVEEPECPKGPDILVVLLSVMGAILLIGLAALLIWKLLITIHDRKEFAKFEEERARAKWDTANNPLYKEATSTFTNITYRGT
T1 sequence (P06756 whole entry): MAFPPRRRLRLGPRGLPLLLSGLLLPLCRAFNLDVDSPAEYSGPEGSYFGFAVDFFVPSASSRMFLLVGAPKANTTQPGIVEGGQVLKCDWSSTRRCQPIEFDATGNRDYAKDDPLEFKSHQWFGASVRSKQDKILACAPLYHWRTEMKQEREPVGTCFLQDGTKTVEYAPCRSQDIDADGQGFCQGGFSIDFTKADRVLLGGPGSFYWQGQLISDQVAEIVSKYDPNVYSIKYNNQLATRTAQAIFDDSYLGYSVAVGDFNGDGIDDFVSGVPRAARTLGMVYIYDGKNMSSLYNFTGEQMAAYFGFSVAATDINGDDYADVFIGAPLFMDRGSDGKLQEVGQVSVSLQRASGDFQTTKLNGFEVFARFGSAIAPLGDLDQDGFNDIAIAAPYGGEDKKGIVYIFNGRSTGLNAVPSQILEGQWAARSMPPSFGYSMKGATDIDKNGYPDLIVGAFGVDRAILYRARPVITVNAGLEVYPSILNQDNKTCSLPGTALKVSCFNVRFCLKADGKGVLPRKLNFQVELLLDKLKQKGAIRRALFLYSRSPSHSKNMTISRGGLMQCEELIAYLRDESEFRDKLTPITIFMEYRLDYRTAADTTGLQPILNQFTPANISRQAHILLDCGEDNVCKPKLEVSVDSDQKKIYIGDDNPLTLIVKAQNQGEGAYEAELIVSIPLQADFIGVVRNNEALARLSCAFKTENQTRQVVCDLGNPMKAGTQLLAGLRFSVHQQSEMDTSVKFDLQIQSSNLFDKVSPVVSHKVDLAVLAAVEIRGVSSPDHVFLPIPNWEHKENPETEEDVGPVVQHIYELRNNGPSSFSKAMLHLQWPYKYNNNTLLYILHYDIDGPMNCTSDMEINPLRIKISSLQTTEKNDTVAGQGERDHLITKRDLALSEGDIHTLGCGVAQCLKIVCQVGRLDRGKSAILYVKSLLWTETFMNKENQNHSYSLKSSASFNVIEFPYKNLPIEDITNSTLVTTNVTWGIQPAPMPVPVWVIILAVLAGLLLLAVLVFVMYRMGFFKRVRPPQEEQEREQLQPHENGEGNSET

Regarding `O=C(CCCCc1ccc2c(n1)NCCC2)NCCC(C(=O)O)c1cnc2ccccc2c1` (single isomer, unassigned) [Example 89, 2-(3-quinolyl)-4-[5-(5,6,7,8-tetrahydro-1,8-naphthyridin-2-yl)pentanoylamino]butanoic acid], on HEK-293-αVβ3 cells [1], the “AP5 expression induced at the highest concentration” value came out at 27% and the half-maximal effective concentration (EC50) was > 10000 nM. On HEK-293-αVβ3 cells [2], this compound displayed an IC50 of 106 nM.

For `O=C(CCCCc1ccc2c(n1)NCCC2)NCCC(C(=O)O)c1cnc2ccccc2c1` (single isomer, unassigned) [Example 90, 2-(3-quinolyl)-4-[5-(5,6,7,8-tetrahydro-1,8-naphthyridin-2-yl)pentanoylamino]butanoic acid], on HEK-293-αVβ3 cells [1], the “AP5 expression induced at the highest concentration” value came to 11% and the half-maximal effective concentration (EC50) was > 10000 nM. On HEK-293-αVβ3 cells [2], this compound had a half-maximal inhibitory concentration (IC50) of 228 nM.

For `O=C(CCCCc1ccc2c(n1)NCCC2)NCCC(C(=O)O)n1cnc(-c2ccccc2)n1` (single isomer, unassigned) [Example 93, (S or R)-2-(3-phenyl-1,2,4-triazol-1-yl)-4-[5-(5,6,7,8-tetrahydro-1,8-naphthyridin-2-yl)pentanoylamino]-butanoic acid], at HEK-293-αVβ3 cells [1], the half-maximal effective concentration (EC50) is > 10000 nM. This compound also showed an IC50 on HEK-293-αVβ3 cells [2] of 288 nM.

Regarding `O=C(CCCCc1ccc2c(n1)NCCC2)NCCC(C(=O)O)n1cnc(-c2ccccc2)n1` (single isomer, unassigned) [Example 94, (S or R)-2-(3-phenyl-1,2,4-triazol-1-yl)-4-[5-(5,6,7,8-tetrahydro-1,8-naphthyridin-2-yl)pentanoylamino]butanoic acid], the IC50 against HEK-293-αVβ3 cells [2] was 373 nM.

On to `O=C(O)CCCNC(=O)CCCCc1ccc2c(n1)NCCC2` [Example 1, 4-[5-(5,6,7,8-tetrahydro-1,8-naphthyridin-2-yl)pentanoylamino]butanoic acid], for which the EC50 at HEK-293-αVβ3 cells [1] is > 100000 nM. The compound further came in with an IC50 on HEK-293-αVβ3 cells [2] of 1350 nM.

For the compound `COC(=O)[C@H](CCNC(=O)CCCCc1ccc2c(n1)NCCC2)NC(=O)OCc1ccccc1` [Example 2, Methyl (2S)-2-(benzyloxycarbonylamino)-4-[5-(5,6,7,8-tetrahydro-1,8-naphthyridin-2-yl)pentanoylamino]butanoate], at HEK-293-αVβ3 cells [1], the activation at 10 µM amounted to 19% and the EC50 was > 10000 nM. Moreover, the IC50 at HEK-293-αVβ3 cells [2] is 286 nM and 1680 nM.

Consider `O=C(CCCCc1ccc2c(n1)NCCC2)NCC[C@H](NC(=O)OCc1ccccc1)C(=O)O` [Example 3, (2S)-2-(Benzyloxycarbonylamino)-4-[5-(5,6,7,8-tetrahydro-1,8-naphthyridin-2-yl)pentanoylamino]butanoic acid], for which, at HEK-293-αVβ3 cells [1], the activation at 10 µM worked out at 16% and the EC50 was > 10000 nM. Also, the IC50 at HEK-293-αVβ3 cells [2] is 146 nM and 484 nM and 699 nM and 362 nM and 324 nM and 344 nM.

For the compound `O=C(CCCCc1ccc2c(n1)NCCC2)NCC[C@@H](NC(=O)OCc1ccccc1)C(=O)O` [Example 4, (2R)-2-(Benzyloxycarbonylamino)-4-[5-(5,6,7,8-tetrahydro-1,8-naphthyridin-2-yl)pentanoylamino]butanoic acid], at HEK-293-αVβ3 cells [1], the activation at 10 µM was determined as 5% and the EC50 was > 10000 nM. Besides, the half-maximal inhibitory concentration (IC50) against HEK-293-αVβ3 cells [2] is 225 nM and 773 nM and 952 nM and 537 nM and 612 nM and 683 nM.

`COC(=O)C(CCNC(=O)CCCCc1ccc2c(n1)NCCC2)NC(=O)OCc1ccccc1` (stereo not drawn) [Example 5, Methyl 2-(benzyloxycarbonylamino)-4-[5-(5,6,7,8-tetrahydro-1,8-naphthyridin-2-yl)pentanoylamino]butanoate]: at HEK-293-αVβ3 cells [1], the activation at 10 µM stood at 23% and the EC50 is > 10000 nM. At HEK-293-αVβ3 cells [2], this compound gave an IC50 of 2450 nM.

Consider `COC(=O)[C@@H](CCNC(=O)CCCCc1ccc2c(n1)NCCC2)NC(=O)OCc1ccccc1` [Example 6, Methyl (2R)-2-(benzyloxycarbonylamino)-4-[5-(5,6,7,8-tetrahydro-1,8-naphthyridin-2-yl)pentanoylamino]butanoate], for which the IC50 at HEK-293-αVβ3 cells [2] was > 10000 nM.

Take `O=C(CCCCc1ccc2c(n1)NCCC2)NCCC(NC(=O)OCc1ccccc1)C(=O)O` (stereo not drawn) [Example 7, 2-(Benzyloxycarbonylamino)-4-[5-(5,6,7,8-tetrahydro-1,8-naphthyridin-2-yl)pentanoylamino]butanoic acid]: at HEK-293-αVβ3 cells [1], the activation at 10 µM came to 15% and the half-maximal effective concentration (EC50) was > 10000 nM. Further, at HEK-293-αVβ3 cells [2], the 50% inhibitory concentration (IC50) was 407 nM and 570 nM and 337 nM and 428 nM.

For the compound `COC(=O)C(CCNC(=O)CCCCc1ccc2c(n1)NCCC2)c1ccccc1` (stereo not drawn) [Example 8, Methyl 2-phenyl-4-[5-(5,6,7,8-tetrahydro-1,8-naphthyridin-2-yl)pentanoylamino]butanoate], the IC50 against HEK-293-αVβ3 cells [2] is > 10000 nM.

For the compound `O=C(CCCCc1ccc2c(n1)NCCC2)NCCC(C(=O)O)c1ccccc1` (stereo not drawn) [Example 9, 2-Phenyl-4-[5-(5,6,7,8-tetrahydro-1,8-naphthyridin-2-yl)pentanoylamino]butanoic acid], at HEK-293-αVβ3 cells [1], the activation at 10 µM came to 11% and the EC50 was > 10000 nM. The half-inhibitory concentration (IC50) against HEK-293-αVβ3 cells [2] was 3720 nM and 1770 nM.

Consider `COC(=O)C(C)CCNC(=O)CCCCc1ccc2c(n1)NCCC2` (stereo not drawn) [Example 10, Methyl 2-methyl-4-[5-(5,6,7,8-tetrahydro-1,8-naphthyridin-2-yl)pentanoylamino]butanoate], for which, at HEK-293-αVβ3 cells [2], the IC50 is > 10000 nM.

For `COC(=O)C(CCNC(=O)CCCCc1ccc2c(n1)NCCC2)Cc1ccccc1` (stereo not drawn) [Example 11, Methyl 2-benzyl-4-[5-(5,6,7,8-tetrahydro-1,8-naphthyridin-2-yl)pentanoylamino]butanoate], on HEK-293-αVβ3 cells [2], the IC50 is > 10000 nM.

In the case of `CC(CCNC(=O)CCCCc1ccc2c(n1)NCCC2)C(=O)O` (stereo not drawn) [Example 12, 2-Methyl-4-[5-(5,6,7,8-tetrahydro-1,8-naphthyridin-2-yl)pentanoylamino]butanoic acid], on HEK-293-αVβ3 cells [2], the IC50 was > 10000 nM.

On to `O=C(CCCCc1ccc2c(n1)NCCC2)NCCC(Cc1ccccc1)C(=O)O` (stereo not drawn) [Example 13, 2-Benzyl-4-[5-(5,6,7,8-tetrahydro-1,8-naphthyridin-2-yl)pentanoylamino]butanoic acid], for which the IC50 against HEK-293-αVβ3 cells [2] was > 10000 nM.

Take `Cc1ccc(S(=O)(=O)NC(CCNC(=O)CCCCc2ccc3c(n2)NCCC3)C(=O)O)cc1` (stereo not drawn) [Example 14, 2-(p-Tolylsulfonylamino)-4-[5-(5,6,7,8-tetrahydro-1,8-naphthyridin-2-yl)pentanoylamino]butanoic acid]: at HEK-293-αVβ3 cells [1], the activation at 10 µM stood at 7% and the concentration for a half-maximal effect (EC50) is > 10000 nM. The same compound yielded an IC50 on HEK-293-αVβ3 cells [2] of 6300 nM.

Turning to `O=C(CCCCc1ccc2c(n1)NCCC2)NCCC(NC(=O)c1ccccn1)C(=O)O` (stereo not drawn) [Example 25], on HEK-293-αVβ3 cells [1], the activation at 10 µM worked out at 16% and the half-maximal effective concentration (EC50) was > 10000 nM. Also, the IC50 at HEK-293-αVβ3 cells [2] is < 100 nM.

For `O=C(CCCCc1ccc2c(n1)NCCC2)NCCC(NC(=O)CO)C(=O)O` (stereo not drawn) [Example 34], at HEK-293-αVβ3 cells [1], the activation at 10 µM came to 32% and the EC50 was > 10000 nM. Moreover, the IC50 against HEK-293-αVβ3 cells [2] was < 100 nM.

In the case of `O=C(CCCCc1ccc2c(n1)NCCC2)NCCC(NS(=O)(=O)c1ccc2ccccc2c1)C(=O)O` (stereo not drawn) [Example 45], the “inhibition at specific dose 0.1” value against HEK-293-αVβ3 cells [2] (dose 0.1 (table in μM), untreated cells 100% adhesion, 10 mM EDTA 0%) worked out at 40%.

As to `O=C(CCCCc1ccc2c(n1)NCCC2)NCCC(NS(=O)(=O)c1ccc(Oc2ccccc2)cc1)C(=O)O` (stereo not drawn) [Example 48], the IC50 on HEK-293-αVβ3 cells [2] is > 10000 nM.

With `O=C(CCCCc1ccc2c(n1)NCCC2)NCCC(NC(=O)Nc1ccc(Oc2ccccc2)cc1)C(=O)O` (stereo not drawn) [Example 59], the IC50 on HEK-293-αVβ3 cells [2] was > 10000 nM.

Take `CC(C)[C@H]1C(=O)N[C@@H](CCCN=C(N)N)C(=O)NCC(=O)N[C@@H](CC(=O)O)C(=O)N[C@H](Cc2ccccc2)C(=O)N1C` [cilengitide, reference compound]: the AP5 expression on HEK-293-αVβ3 cells [1] (1 μM cilengitide, average±SD of 17 experiments) is given as 42.5±8.0 arbitrary fluorescence units.
